The results in this text go back to patent US8168650B2, “Therapeutic uses of bicyclic ligands of sigma 2 receptor” (priority 2006, dated 2012).

Test [1] addresses T1, σ1 receptor (Cavia porcellus, UniProt Q60492).
Method: (§1) In vitro binding studies were conducted in order to determine the affinity of the target compounds at σ1 and σ2 receptors.
(§2) In this example, test compounds were dissolved in N,N-dimethylformamide (DMF), dimethylsulfoxide (DMSO) or ethanol and then diluted in 50 mM Tris-HCl, pH 7.4 buffer containing 150 mM NaCl and 100 mM EDTA. Membrane homogenates were made from guinea pig brain for σ1 binding assays and rat liver for σ2 binding assays. Membrane homogenates were diluted with 50 mM Tris-HCl buffer, pH 8.0, and incubated at 25° C. in a total volume of 150 μL in 96-well plates with the radioligand and test compounds with concentrations ranging from 0.1 nM to 10 μM. After incubation was completed, the reactions were terminated by the addition of 150 μL of ice-cold wash buffer (10 mM Tris-HCl, 150 mM NaCl, pH 7.4) using a 96-channel transfer pipette (Fisher Scientific, Pittsburgh, Pa.), and the samples harvested and filtered rapidly through 96-well fiberglass filter plate (Millipore, Billerica, Mass.) that had been presoaked with 100 μL of 50 mM Tris-HCl buffer, pH 8.0, for 1 h. Each filter was washed three times with 200 μL of ice cold wash buffer.
(§3) Ki values were calculated using the method of Cheng and Prusoff20 and represent mean values±SEM.
A further test concerns the target T2, σ2 receptor (Rattus norvegicus, UniProt Q5U3Y7).
T2 construct: from tissue; host or cells: rat liver membrane homogenates
T2 sequence (Q5U3Y7 1-176): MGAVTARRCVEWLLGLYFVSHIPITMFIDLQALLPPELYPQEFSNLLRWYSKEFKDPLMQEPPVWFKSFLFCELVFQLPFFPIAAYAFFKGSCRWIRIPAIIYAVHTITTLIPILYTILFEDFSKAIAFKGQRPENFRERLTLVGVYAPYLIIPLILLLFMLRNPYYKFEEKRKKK
The experiment in a line: σ2 receptor binding assay, [3H]DTG or [3H]RHM-1. The following applies: for σ1/σ2 Ratio: Ki for σ1/Ki for σ2.

Test [2] deals with T1, σ1 receptor. Put plainly: biochemical.
Method: as §1, §2, §3
[3] abbreviates: inhibiting binding of [3H]DTG or [3H]RHM-1 to rat liver homogenates, mean ± SEM, read-out: Ki σ2.
The mark [4] stands for this setting: Ki σ2, inhibiting binding of [3H]DTG or [3H]RHM-1 to rat liver homogenates, mean ± SEM.

Where a name gives a salt, the structure may show the parent alone. Read-outs that look alike come from different tables or passages of the source.

T1 sequence (Q60492 whole entry): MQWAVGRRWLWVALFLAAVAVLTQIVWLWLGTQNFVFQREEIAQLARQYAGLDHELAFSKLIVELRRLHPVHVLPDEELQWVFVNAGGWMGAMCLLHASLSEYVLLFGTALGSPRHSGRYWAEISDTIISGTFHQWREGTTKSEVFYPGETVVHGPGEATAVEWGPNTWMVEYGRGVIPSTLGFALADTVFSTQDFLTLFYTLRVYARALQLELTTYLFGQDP
Method for σ2 receptor: as §1, §2, §3

As a reminder, the Ki is the dissociation constant of the complex between target and ligand, obtained from inhibition or displacement. On to “N-(9-(4-(4′-Fluorobenzoylamino)hexyl)-9-azabicyclo[3.3.1]nonan-3α-yl)-N-(2-methoxy-5-methylphenyl)carbamate oxalate [Compound 4c]”, for which the Ki on σ1 receptor [1] was 1240 ± 212 nM; at σ2 receptor (setting [3]) it was 497 ± 103 nM. Moreover, the “σ1/σ2 Ratio” value on σ2 receptor is reported as 2.50.

Compound `COc1ccc(C)cc1NC(=O)OC1CC2CCCC(C1)N2CCCCCCNS(=O)(=O)c1cccc2c(N(C)C)cccc12` (stereo not drawn) [Compound 9, N-(9-(6-(5-Dimethylamino-1-naphthalenesulfonamido))hexyl)-9-azabicyclo[3.3.1]-nonan-3α-yl-N-(2-methoxy-5-methylphenyl)carbamate oxalate] registered a Ki on σ1 receptor [2] of 12600 nM. Besides, at σ2 receptor, the “affinity and selectivity for σ2 versus σ1 receptors (in words)” value (“affinity and selectivity” for short) is “moderate affinity and selectivity”; the “σ1/σ2 Ratio” value worked out at 85.43. In addition, at σ2 receptor (read-out: Ki σ2), the Ki stood at 148 ± 8.85 nM.

On σ1 receptor [1], `COc1ccc(C)cc1NC(=O)OC1CC2CCCC(C1)N2CCCCCCCCCCN` (stereo not drawn) [Compound 1c, N-(9-(10-Aminodecyl)-9-azabicyclo[3.3.1]nonan-3α-yl)-N-(2-methoxy-5-methylphenyl)carbamate hydrochloride] yielded a Ki of 134 ± 11.9 nM. Also, at σ2 receptor, the “affinity and selectivity” value is listed as “high affinity at σ2 receptor but low selectivity”; the “σ1/σ2 Ratio” value is 19. In addition, the Ki at σ2 receptor (setting [3]) was found to be 7.07 ± 1.27 nM.

As to `COc1ccc(C)cc1NC(=O)OC1CC2CCCC(C1)N2CCCCCCNCc1cccc(F)c1` (stereo not drawn) [Compound 3b, N-(9-(6-(3′-Fluorobenzylamino)hexyl)-9-azabicyclo[3.3.1]nonan-3α-yl)-N-(2-methoxy-5-methylphenyl)carbamate oxalate], the inhibition constant (Ki) on σ1 receptor [2] was 0.46 ± 0.05 nM; on σ2 receptor (setting [4]), 4.85 ± 0.49 nM. Further, the “σ1/σ2 Ratio” value on σ2 receptor is on record as 0.09.

Take `COc1ccc(C)cc1NC(=O)OC1CC2CCCC(C1)N2CCCCNCc1cccc(F)c1` (stereo not drawn) [Compound 2b, N-(9-(4-(3′-Fluorobenzylamino)butyl)-9-azabicyclo[3.3.1]nonan-3α-yl)-N-(2-methoxy-5-methylphenyl)carbamate oxalate]: the Ki at σ1 receptor [2] came out at 0.3 ± 0.05 nM; at σ2 receptor (setting [4]) it was 4.13 ± 0.33 nM. Besides, the “σ1/σ2 Ratio” value at σ2 receptor turned out to be 0.07.

For the compound `COc1ccc(C)cc1NC(=O)OC1CC2CCCC(C1)N2CCCCCCNC(=O)c1ccc(Br)cc1` (stereo not drawn) [Compound 4b, N-(9-(4-(4′-Bromobenzoylamino)hexyl)-9-azabicyclo[3.3.1]nonan-3α-yl)-N-(2-methoxy-5-methylphenyl)carbamate oxalate], the Ki on σ1 receptor [2] is 2040 ± 98 nM; on σ2 receptor (read-out: Ki σ2), 719 ± 84 nM. Moreover, the “σ1/σ2 Ratio” value at σ2 receptor came out at 2.84.

With `COc1ccc(C)cc1NC(=O)OC1CC2CCCC(C1)N2CCCCNCc1cccc(Br)c1` (stereo not drawn) [Compound 2a, N-(9-(4-(3′-Bromobenzylamino)butyl)-9-azabicyclo[3.3.1]nonan-3α-yl)-N-(2-methoxy-5-methylphenyl)carbamate oxalate], the Ki at σ1 receptor [2] worked out at 66.3 ± 5.3 nM; at σ2 receptor (setting [4]), 3.06 ± 0.41 nM. Besides, the “σ1/σ2 Ratio” value at σ2 receptor is on record as 21.66.

In the case of `COc1ccc(C)cc1NC(=O)OC1CC2CCCC(C1)N2CCCCCCNCc1ccc(Br)cc1` (stereo not drawn) [Compound 3d, N-(9-(6-(4′-Bromobenzylamino)hexyl)-9-azabicyclo[3.3.1]nonan-3α-yl)-N-(2-methoxy-5-methylphenyl)carbamate oxalate], the Ki was determined as 43.2 ± 2.88 nM at σ1 receptor [2] and 9.93 ± 1.61 nM on σ2 receptor (setting [4]). The “σ1/σ2 Ratio” value at σ2 receptor was 4.35.

At σ1 receptor [2], `COc1ccc(C)cc1NC(=O)OC1CC2CCCC(C1)N2CCCCN` (stereo not drawn) [Compound 1a, N-(9-(4-Aminobutyl)-9-azabicyclo[3.3.1]nonan-3α-yl)-N-(2-methoxy-5-methyl-phenyl)carbamate hydrochloride] registered a Ki of 2490 ± 271 nM. Besides, on σ2 receptor, the “affinity and selectivity” value is “moderate affinity and selectivity”; the “σ1/σ2 Ratio” value is 193. The Ki on σ2 receptor (setting [4]) worked out at 12.9 ± 0.46 nM.

`COc1ccc(C)cc1NC(=O)OC1CC2CCCC(C1)N2CCCCCCNCc1ccc(I)cc1` (stereo not drawn) [Compound 3f, N-(9-(6-(4′-Iodobenzylamino)hexyl)-9-azabicyclo[3.3.1]nonan-3α-yl)-N-(2-methoxy-5-methylphenyl)carbamate oxalate]: the Ki at σ1 receptor [2] is 0.65 ± 0.09 nM; on σ2 receptor (setting [4]), 35.9 ± 1.5 nM. Further, the “σ1/σ2 Ratio” value at σ2 receptor amounted to 0.02.

Turning to `COc1ccc(C)cc1NC(=O)OC1CC2CCCC(C1)N2CCCCCCNC(=O)c1ccc(Cl)cc1` (stereo not shown) [Compound 4a], the Ki at σ1 receptor [2] worked out at 1400 ± 64 nM. Besides, on σ2 receptor, the “affinity and selectivity” value was “high affinity and selectivity”; the “σ1/σ2 Ratio” value was determined as 392. For the same compound, the affinity on σ2 receptor (setting [4]), expressed as Ki, was 3.56 ± 0.08 nM.

Turning to `COc1ccc(C)cc1NC(=O)O[C@H]1C[C@H]2CCC[C@@H](C1)N2CCCCCCNCc1cccc(I)c1` [Compound 3c, N-(9-(6-(3′-Iodobenzylamino)hexyl)-9-azabicyclo-[3.3.1]nonan-3α-yl)-N-(2-methoxy-5-methylphenyl)carbamate oxalate], the inhibition constant Ki at σ1 receptor [2] was 0.56 ± 0.06 nM; at σ2 receptor (setting [4]) it was 32.7 ± 5.93 nM. Further, on σ2 receptor, the “σ1/σ2 Ratio” value came to 0.02.

In the case of `COc1ccc(C)cc1NC(=O)OC1CC2CCCC(C1)N2CCCCNCc1ccc(F)cc1` (stereo not drawn) [Compound 2e, N-(9-(4-(4′-Fluorobenzylamino)butyl)-9-azabicyclo[3.3.1]nonan-3α-yl)-N-(2-methoxy-5-methylphenyl)carbamate oxalate], the Ki at σ1 receptor [2] turned out to be 22.1 ± 1.58 nM; at σ2 receptor (setting [4]), 29.1 ± 3.48 nM. For the same compound, the “σ1/σ2 Ratio” value at σ2 receptor is recorded as 0.76.

Take `COc1ccc(C)cc1NC(=O)OC1CC2CCCC(C1)N2CCCCNCc1ccc(Br)cc1` (stereo not drawn) [Compound 2d, N-(9-(4-(4′-Bromobenzylamino)butyl)-9-azabicyclo[3.3.1]nonan-3α-yl)-N-(2-methoxy-5-methylphenyl)carbamates]: the values for the Ki on σ1 receptor [2] and on σ2 receptor (setting [4]) were 1.7 ± 0.28 nM and 4.07 ± 0.61 nM, respectively. For the same compound, on σ2 receptor, the “σ1/σ2 Ratio” value came to 0.42.

Turning to `COc1ccc(C)cc1NC(=O)OC1CC2CCCC(C1)N2CCCCCCNCc1ccc(F)cc1` (stereo not drawn) [Compound 3e, N-(9-(6-(4′-Fluorobenzylamino)hexyl)-9-azabicyclo[3.3.1]nonan-3α-yl)-N-(2-methoxy-5-methylphenyl)carbamate oxalate], the Ki is 1 ± 0.26 nM at σ1 receptor [2] and 70.9 ± 4.38 nM on σ2 receptor (setting [4]). The “σ1/σ2 Ratio” value on σ2 receptor was 0.01.

As to `COc1ccc(C)cc1NC(=O)OC1CC2CCCC(C1)N2CCCCCCNCc1cccc(Br)c1` (stereo not drawn) [Compound 3a, N-(9-(6-(3′-Bromobenzylamino)hexyl)-9-azabicyclo[3.3.1]nonan-3α-yl)-N-(2-methoxy-5-methylphenyl)carbamate oxalate], the inhibition constant (Ki) at σ1 receptor [2] amounted to 112 ± 4.8 nM; on σ2 receptor (setting [4]), 8.94 ± 0.61 nM. In addition, the “σ1/σ2 Ratio” value at σ2 receptor came to 12.57.

As to `COc1ccc(C)cc1NC(=O)O[C@H]1C[C@H]2CCC[C@@H](C1)N2CCCCNCc1cccc(I)c1` [Compound 2c, N-(9-(4-(3′-Iodobenzylamino)butyl)-9-azabicyclo-[3.3.1]nonan-3α-yl)-N-(2-methoxy-5-methylphenyl)carbamate oxalate], the Ki was found to be 63.9 ± 5.61 nM at σ1 receptor [2] and 1.21 ± 0.14 nM at σ2 receptor (setting [4]). Further, the “σ1/σ2 Ratio” value at σ2 receptor is listed as 52.77.

For `COc1ccc(C)cc1NC(=O)OC1CC2CCCC(C1)N2CCCCNCc1ccc(I)cc1` (stereo not drawn) [Compound 2f, N-(9-(4-(4′-Iodobenzylamino)butyl)-9-azabicyclo[3.3.1]nonan-3α-yl)-N-(2-methoxy-5-methylphenyl)carbamate oxalate], the Ki at σ1 receptor [2] amounted to 0.34 ± 0.03 nM; on σ2 receptor (setting [4]), 4 ± 0.54 nM. Besides, the “σ1/σ2 Ratio” value on σ2 receptor is 0.08.
